Results from patent publication US20230093099A1, “COMPOUNDS AND METHODS OF TREATING CANCERS” (CULLGEN (SHANGHAI), INC., priority 2019, published 2023).

Test system: RS4;11 cells
Assay: Cell viability assay (CellTiter-Glo) in RS4;11 cells
Format: cell-based
Details: Homo sapiens, 72 h; RS4;11 ALL cells treated for three days; read-out: cell viability inhibition IC50
How it was run: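 Three-day compound treatment of RS4;11 ALL cells (5000/well, 3-fold dilution series of 8 or 12 points), with IC50 from a nonlinear least-squares fit to CellTiter-Glo viability data.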

SMILES	IC50 [µM]
Cc1cnc(Nc2ccc(N3CCN(CC(=O)NCCOCCOCCOCCOCCOCCNc4cccc5c4C(=O)N(C4CCC(=O)NC4=O)C5=O)CC3)cc2)nc1Nc1cccc(S(=O)(=O)NC(C)(C)C)c1 (stereo not drawn) [JA-224, 2-(4-(4-((4-((3-(N-(tert-butyl)sulfamoyl)phenyl)amino)-5-methylpyrimidin-2-yl)amino)phenyl)piperazin-1-yl)-N-(17-((2-(2,6-dioxopiperidin-3-yl)-1,3-dioxoisoindolin-4-yl)amino)-3,6,9,12,15-pentaoxaheptadecyl)acetamide]	< 0.1
Cc1cnc(Nc2ccc(N3CCN(C(=O)CNc4ccc5c(c4)C(=O)N(C4CCC(=O)NC4=O)C5=O)CC3)cc2)nc1Nc1cccc(S(=O)(=O)NC(C)(C)C)c1 (stereo not drawn) [JA-225, N-(tert-butyl)-3-((2-((4-(4-((2-(2,6-dioxopiperidin-3-yl)-1,3-dioxoisoindolin-5-yl)glycyl)piperazin-1-yl)phenyl)amino)-5-methylpyrimidin-4-yl)amino)benzenesulfonamide]	< 0.1
Cc1cnc(Nc2ccc(N3CCN(C(=O)CCCCCCCNc4ccc5c(c4)C(=O)N(C4CCC(=O)NC4=O)C5=O)CC3)cc2)nc1Nc1cccc(S(=O)(=O)NC(C)(C)C)c1 (stereo not drawn) [JA-231, N-(tert-butyl)-3-((2-((4-(4-(8-((2-(2,6-dioxopiperidin-3-yl)-1,3-dioxoisoindolin-5-yl)amino)octanoyl)piperazin-1-yl)phenyl)amino)-5-methylpyrimidin-4-yl)amino)benzenesulfonamide]	< 0.1

Same assay, conditions: Homo sapiens, 72 h; RS4;11 cells; cell viability, 3 days, CellTiter-Glo; read-out: IC50

SMILES	IC50 [µM]
Cc1cnc(Nc2ccc(N3CCN(CC(=O)NCCOCC(=O)N[C@H](C(=O)N4C[C@H](O)C[C@H]4C(=O)NCc4ccc(-c5scnc5C)cc4)C(C)(C)C)CC3)cc2)nc1Nc1cccc(S(=O)(=O)NC(C)(C)C)c1 [JA-217, (2S,4R)-1-((S)-2-(2-(2-(2-(4-(4-((4-((3-(N-(tert-butyl)sulfamoyl)phenyl)amino)-5-methylpyrimidin-2-yl)amino)phenyl)piperazin-1-yl)acetamido)ethoxy)acetamido)-3,3-dimethylbutanoyl)-4-hydroxy-N-(4-(4-methylthiazol-5-yl)benzyl)pyrrolidine-2-carboxamide]	5.6
Cc1cnc(Nc2ccc(N3CCN(CC(=O)NCCOCCC(=O)N[C@H](C(=O)N4C[C@H](O)C[C@H]4C(=O)NCc4ccc(-c5scnc5C)cc4)C(C)(C)C)CC3)cc2)nc1Nc1cccc(S(=O)(=O)NC(C)(C)C)c1 [JA-218, (2S,4R)-1-((S)-2-(3-(2-(2-(4-(4-((4-((3-(N-(tert-butyl)sulfamoyl)phenyl)amino)-5-methylpyrimidin-2-yl)amino)phenyl)piperazin-1-yl)acetamido)ethoxy)propanamido)-3,3-dimethylbutanoyl)-4-hydroxy-N-(4-(4-methylthiazol-5-yl)benzyl)pyrrolidine-2-carboxamide]	> 10
Cc1cnc(Nc2ccc(N3CCN(CC(=O)NCCOCCOCCC(=O)N[C@H](C(=O)N4C[C@H](O)C[C@H]4C(=O)NCc4ccc(-c5scnc5C)cc4)C(C)(C)C)CC3)cc2)nc1Nc1cccc(S(=O)(=O)NC(C)(C)C)c1 [JA-219, (2S,4R)-1-((S)-14-(tert-butyl)-1-(4-(4-((4-((3-(N-(tert-butyl)sulfamoyl)phenyl)amino)-5-methylpyrimidin-2-yl)amino)phenyl)piperazin-1-yl)-2,12-dioxo-6,9-dioxa-3,13-diazapentadecan-15-oyl)-4-hydroxy-N-(4-(4-methylthiazol-5-yl)benzyl)pyrrolidine-2-carboxamide]	> 10
Cc1cnc(Nc2ccc(N3CCN(CC(=O)NCCOCCOCCOCC(=O)N[C@H](C(=O)N4C[C@H](O)C[C@H]4C(=O)NCc4ccc(-c5scnc5C)cc4)C(C)(C)C)CC3)cc2)nc1Nc1cccc(S(=O)(=O)NC(C)(C)C)c1 [JA-220, (2S,4R)-1-((S)-2-(tert-butyl)-17-(4-(4-((4-((3-(N-(tert-butyl)sulfamoyl)phenyl)amino)-5-methylpyrimidin-2-yl)amino)phenyl)piperazin-1-yl)-4,16-dioxo-6,9,12-trioxa-3,15-diazaheptadecanoyl)-4-hydroxy-N-(4-(4-methylthiazol-5-yl)benzyl)pyrrolidine-2-carboxamide]	> 10
Cc1cnc(Nc2ccc(N3CCN(CC(=O)NCCOCCOCCOCCC(=O)N[C@H](C(=O)N4C[C@H](O)C[C@H]4C(=O)NCc4ccc(-c5scnc5C)cc4)C(C)(C)C)CC3)cc2)nc1Nc1cccc(S(=O)(=O)NC(C)(C)C)c1 [JA-221, (2S,4R)-1-((S)-17-(tert-butyl)-1-(4-(4-((4-((3-(N-(tert-butyl)sulfamoyl)phenyl)amino)-5-methylpyrimidin-2-yl)amino)phenyl)piperazin-1-yl)-2,15-dioxo-6,9,12-trioxa-3,16-diazaoctadecan-18-oyl)-4-hydroxy-N-(4-(4-methylthiazol-5-yl)benzyl)pyrrolidine-2-carboxamide]	> 10
Cc1cnc(Nc2ccc(N3CCN(CC(=O)NCCOCCOCCOCCOCCOCCC(=O)N[C@H](C(=O)N4C[C@H](O)C[C@H]4C(=O)NCc4ccc(-c5scnc5C)cc4)C(C)(C)C)CC3)cc2)nc1Nc1cccc(S(=O)(=O)NC(C)(C)C)c1 [JA-223, (2S,4R)-1-((S)-23-(tert-butyl)-1-(4-(4-((4-((3-(N-(tert-butyl)sulfamoyl)phenyl)amino)-5-methylpyrimidin-2-yl)amino)phenyl)piperazin-1-yl)-2,21-dioxo-6,9,12,15,18-pentaoxa-3,22-diazatetracosan-24-oyl)-4-hydroxy-N-(4-(4-methylthiazol-5-yl)benzyl)pyrrolidine-2-carboxamide]	9.38
Cc1cnc(Nc2ccc(N3CCN(CC(=O)NCCOCCOCCOCCOCCOCCNc4cccc5c4C(=O)N(C4CCC(=O)NC4=O)C5=O)CC3)cc2)nc1Nc1cccc(S(=O)(=O)NC(C)(C)C)c1 (stereo not drawn) [JA-224, 2-(4-(4-((4-((3-(N-(tert-butyl)sulfamoyl)phenyl)amino)-5-methylpyrimidin-2-yl)amino)phenyl)piperazin-1-yl)-N-(17-((2-(2,6-dioxopiperidin-3-yl)-1,3-dioxoisoindolin-4-yl)amino)-3,6,9,12,15-pentaoxaheptadecyl)acetamide]	0.105
Cc1cnc(Nc2ccc(N3CCN(C(=O)CNc4ccc5c(c4)C(=O)N(C4CCC(=O)NC4=O)C5=O)CC3)cc2)nc1Nc1cccc(S(=O)(=O)NC(C)(C)C)c1 (stereo not drawn) [JA-225, N-(tert-butyl)-3-((2-((4-(4-((2-(2,6-dioxopiperidin-3-yl)-1,3-dioxoisoindolin-5-yl)glycyl)piperazin-1-yl)phenyl)amino)-5-methylpyrimidin-4-yl)amino)benzenesulfonamide]	0.0658
Cc1cnc(Nc2ccc(N3CCN(C(=O)CCNc4ccc5c(c4)C(=O)N(C4CCC(=O)NC4=O)C5=O)CC3)cc2)nc1Nc1cccc(S(=O)(=O)NC(C)(C)C)c1 (stereo not drawn) [JA-226, N-(tert-butyl)-3-((2-((4-(4-(3-((2-(2,6-dioxopiperidin-3-yl)-1,3-dioxoisoindolin-5-yl)amino)propanoyl)piperazin-1-yl)phenyl)amino)-5-methylpyrimidin-4-yl)amino)benzenesulfonamide]	0.365
Cc1cnc(Nc2ccc(N3CCN(C(=O)CCCNc4ccc5c(c4)C(=O)N(C4CCC(=O)NC4=O)C5=O)CC3)cc2)nc1Nc1cccc(S(=O)(=O)NC(C)(C)C)c1 (stereo not drawn) [JA-227, N-(tert-butyl)-3-((2-((4-(4-(4-((2-(2,6-dioxopiperidin-3-yl)-1,3-dioxoisoindolin-5-yl)amino)butanoyl)piperazin-1-yl)phenyl)amino)-5-methylpyrimidin-4-yl)amino)benzenesulfonamide]	3.11
Cc1cnc(Nc2ccc(N3CCN(C(=O)CCCCNc4ccc5c(c4)C(=O)N(C4CCC(=O)NC4=O)C5=O)CC3)cc2)nc1Nc1cccc(S(=O)(=O)NC(C)(C)C)c1 (stereo not drawn) [JA-228, N-(tert-butyl)-3-((2-((4-(4-(5-((2-(2,6-dioxopiperidin-3-yl)-1,3-dioxoisoindolin-5-yl)amino)pentanoyl)piperazin-1-yl)phenyl)amino)-5-methylpyrimidin-4-yl)amino)benzenesulfonamide]	2.01
Cc1cnc(Nc2ccc(N3CCN(C(=O)CCCCCNc4ccc5c(c4)C(=O)N(C4CCC(=O)NC4=O)C5=O)CC3)cc2)nc1Nc1cccc(S(=O)(=O)NC(C)(C)C)c1 (stereo not drawn) [JA-229, N-(tert-butyl)-3-((2-((4-(4-(6-((2-(2,6-dioxopiperidin-3-yl)-1,3-dioxoisoindolin-5-yl)amino)hexanoyl)piperazin-1-yl)phenyl)amino)-5-methylpyrimidin-4-yl)amino)benzenesulfonamide]	> 10
Cc1cnc(Nc2ccc(N3CCN(C(=O)CCCCCCNc4ccc5c(c4)C(=O)N(C4CCC(=O)NC4=O)C5=O)CC3)cc2)nc1Nc1cccc(S(=O)(=O)NC(C)(C)C)c1 (stereo not drawn) [JA-230, N-(tert-butyl)-3-((2-((4-(4-(7-((2-(2,6-dioxopiperidin-3-yl)-1,3-dioxoisoindolin-5-yl)amino)heptanoyl)piperazin-1-yl)phenyl)amino)-5-methylpyrimidin-4-yl)amino)benzenesulfonamide]	> 10
Cc1cnc(Nc2ccc(N3CCN(C(=O)CCCCCCCNc4ccc5c(c4)C(=O)N(C4CCC(=O)NC4=O)C5=O)CC3)cc2)nc1Nc1cccc(S(=O)(=O)NC(C)(C)C)c1 (stereo not drawn) [JA-231, N-(tert-butyl)-3-((2-((4-(4-(8-((2-(2,6-dioxopiperidin-3-yl)-1,3-dioxoisoindolin-5-yl)amino)octanoyl)piperazin-1-yl)phenyl)amino)-5-methylpyrimidin-4-yl)amino)benzenesulfonamide]	0.0802
Cc1cnc(Nc2ccc(N3CCN(C(=O)CCOCCNc4ccc5c(c4)C(=O)N(C4CCC(=O)NC4=O)C5=O)CC3)cc2)nc1Nc1cccc(S(=O)(=O)NC(C)(C)C)c1 (stereo not drawn) [JA-232, N-(tert-butyl)-3-((2-((4-(4-(3-(2-((2-(2,6-dioxopiperidin-3-yl)-1,3-dioxoisoindolin-5-yl)amino)ethoxy)propanoyl)piperazin-1-yl)phenyl)amino)-5-methylpyrimidin-4-yl)amino)benzenesulfonamide]	> 10
Cc1cnc(Nc2ccc(N3CCN(C(=O)CCOCCOCCNc4ccc5c(c4)C(=O)N(C4CCC(=O)NC4=O)C5=O)CC3)cc2)nc1Nc1cccc(S(=O)(=O)NC(C)(C)C)c1 (stereo not drawn) [JA-233, N-(tert-butyl)-3-((2-((4-(4-(3-(2-(2-((2-(2,6-dioxopiperidin-3-yl)-1,3-dioxoisoindolin-5-yl)amino)ethoxy)ethoxy)propanoyl)piperazin-1-yl)phenyl)amino)-5-methylpyrimidin-4-yl)amino)benzenesulfonamide]	0.287
Cc1cnc(Nc2ccc(N3CCN(C(=O)CCOCCOCCOCCNc4ccc5c(c4)C(=O)N(C4CCC(=O)NC4=O)C5=O)CC3)cc2)nc1Nc1cccc(S(=O)(=O)NC(C)(C)C)c1 (stereo not drawn) [JA-234, N-(tert-butyl)-3-((2-((4-(4-(3-(2-(2-(2-((2-(2,6-dioxopiperidin-3-yl)-1,3-dioxoisoindolin-5-yl)amino)ethoxy)ethoxy)ethoxy)propanoyl)piperazin-1-yl)phenyl)amino)-5-methylpyrimidin-4-yl)amino)benzenesulfonamide]	1.59
Cc1cnc(Nc2ccc(N3CCN(C(=O)CCOCCOCCOCCOCCNc4ccc5c(c4)C(=O)N(C4CCC(=O)NC4=O)C5=O)CC3)cc2)nc1Nc1cccc(S(=O)(=O)NC(C)(C)C)c1 (stereo not drawn) [JA-235, N-(tert-butyl)-3-((2-((4-(4-(1-((2-(2,6-dioxopiperidin-3-yl)-1,3-dioxoisoindolin-5-yl)amino)-3,6,9,12-tetraoxapentadecan-15-oyl)piperazin-1-yl)phenyl)amino)-5-methylpyrimidin-4-yl)amino)benzenesulfonamide]	0.849
